Columns and labels:
[1] = molecular target: T1, Human κ-Opioid (KOP) (Homo sapiens, UniProt P41145); assay: Radioligand binding, human κ-opioid (KOP) membranes, filtration, [3H]-Diprenorphine; conditions: compound at 10 μM, [3H]-Diprenorphine; for A2: inhibition of radioligand binding: filtration
T1 construct: purchased Perkin Elmer Biosignal
In short: (§1)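 Membranes from cloned human receptors were incubated with compound and radioligand for 1 hour at room temperature. Bound ligand was collected on 0.3% PEI-soaked filters, washed with cold 50 mM Tris-HCl pH 7.4, and counted by scintillation. Percent inhibition was computed against DMSO totals and reference-ligand nonspecific wells.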

[2] = molecular target: T2, Human μ-opioid (MOP) (Homo sapiens, UniProt P35372); assay: Radioligand binding, human μ-opioid (MOP) membranes, FlashPlate, [3H]-Naloxone; conditions: compound at 10 μM, [3H]-Naloxone; for A7: inhibition of radioligand binding: FlashPlate
T2 construct: purchased Perkin Elmer Biosignal
In short: (§2)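 Cloned human receptor membranes were coated onto FlashPlate wells and incubated with radioligand and compound (added from a 0.5 mM DMSO daughter plate) for 1 hour at room temperature in the dark. Scintillation counting gave percent inhibition, with DMSO defining total and reference ligand defining non-specific binding.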

[3] = molecular target: T3, Human neurokinin (NK1) (Homo sapiens, UniProt P25103); assay: Radioligand binding, human neurokinin NK1 membranes, filtration, [125I]-Substance P; conditions: compound at 10 μM, [125I]-Substance P; for A8: inhibition of radioligand binding: filtration
T3 construct: purchased Perkin Elmer Biosignal
In short: as §1

[4] = molecular target: T4, Human melanocortin (MC5) (Homo sapiens, UniProt P33032); assay: Radioligand binding, human melanocortin MC5 membranes, FlashPlate, [125I]-NDP-αMSH; conditions: compound at 10 μM, [125I]-NDP-αMSH; for A5: inhibition of radioligand binding: FlashPlate
T4 construct: purchased Perkin Elmer Biosignal
In short: as §2

[5] = molecular target: T5, Human melanin-concentrating hormone (MCH1) (Homo sapiens, UniProt Q99705); assay: Radioligand binding, human melanin-concentrating hormone MCH1 membranes, FlashPlate, [125I]-S36057; conditions: compound at 10 μM; for A6: inhibition of radioligand binding: [125I]-S36057, FlashPlate
T5 construct: purchased Perkin Elmer Biosignal
In short: as §2

[6] = molecular target: T6, Human opioid (ORL1) (Homo sapiens, UniProt P41146); assay: Radioligand binding, human opioid ORL1 membranes, FlashPlate, [125I]-Nociceptin; conditions: compound at 10 μM, [125I]-Nociceptin; for A10: inhibition of radioligand binding: FlashPlate
T6 construct: purchased Perkin Elmer Biosignal
In short: as §2

[7] = molecular target: T7, Human Melanocortin (MC3) (Homo sapiens, UniProt P41968); assay: Radioligand binding, human melanocortin MC3 membranes, FlashPlate, [125I]-NDP-αMSH; conditions: compound at 10 μM, [125I]-NDP-αMSH; for A3: inhibition of radioligand binding: FlashPlate
T7 construct: purchased Perkin Elmer Biosignal
In short: as §2

[8] = molecular target: T8, Human δ-opioid (DOP) (Homo sapiens, UniProt P41143); assay: Radioligand binding, human δ-opioid (DOP) membranes, FlashPlate, [3H]-Bremazocine; conditions: compound at 10 μM, [3H]-Bremazocine; for A1: inhibition of radioligand binding: FlashPlate
T8 construct: purchased Perkin Elmer Biosignal
In short: as §2

[9] = molecular target: T9, Human Melanocortin (MC4) (Homo sapiens, UniProt P32245); assay: Radioligand binding, human melanocortin MC4 membranes, FlashPlate, [125I]-NDP-αMSH; conditions: compound at 10 μM, [125I]-NDP-αMSH; for A4: inhibition of radioligand binding: FlashPlate
T9 construct: purchased Perkin Elmer Biosignal
In short: as §2

[10] = molecular target: T10, Human neuropeptide Y (NPY-Y1) (Homo sapiens, UniProt P25929); assay: Radioligand binding, human neuropeptide Y NPY-Y1 membranes, FlashPlate, [125I]-PYY; conditions: compound at 10 μM, [125I]-PYY; for A9: inhibition of radioligand binding: FlashPlate
T10 construct: purchased Perkin Elmer Biosignal
T10 sequence (P25929 1-384): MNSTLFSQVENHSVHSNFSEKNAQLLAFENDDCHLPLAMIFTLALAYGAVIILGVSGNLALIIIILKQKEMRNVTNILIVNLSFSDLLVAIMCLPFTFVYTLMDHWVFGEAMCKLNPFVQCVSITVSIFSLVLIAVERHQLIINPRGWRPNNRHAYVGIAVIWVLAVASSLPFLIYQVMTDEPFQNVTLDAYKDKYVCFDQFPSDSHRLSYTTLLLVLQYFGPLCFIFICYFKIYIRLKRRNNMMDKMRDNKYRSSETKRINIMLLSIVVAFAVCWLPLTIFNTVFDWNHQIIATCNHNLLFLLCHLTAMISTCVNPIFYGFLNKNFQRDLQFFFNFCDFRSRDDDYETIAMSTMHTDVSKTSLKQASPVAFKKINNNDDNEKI
In short: as §2

[11] = molecular target: T11, Mouse urotensin (mUR2) (Mus musculus, UniProt Q8VIH9); assay: Radioligand binding, mouse urotensin mUR2 membranes, FlashPlate, [125I]-Urotensin II; conditions: compound at 10 μM, [125I]-Urotensin II; for A11: inhibition of radioligand binding: FlashPlate
T11 construct: purchased Perkin Elmer Biosignal
T11 sequence (Q8VIH9 1-385): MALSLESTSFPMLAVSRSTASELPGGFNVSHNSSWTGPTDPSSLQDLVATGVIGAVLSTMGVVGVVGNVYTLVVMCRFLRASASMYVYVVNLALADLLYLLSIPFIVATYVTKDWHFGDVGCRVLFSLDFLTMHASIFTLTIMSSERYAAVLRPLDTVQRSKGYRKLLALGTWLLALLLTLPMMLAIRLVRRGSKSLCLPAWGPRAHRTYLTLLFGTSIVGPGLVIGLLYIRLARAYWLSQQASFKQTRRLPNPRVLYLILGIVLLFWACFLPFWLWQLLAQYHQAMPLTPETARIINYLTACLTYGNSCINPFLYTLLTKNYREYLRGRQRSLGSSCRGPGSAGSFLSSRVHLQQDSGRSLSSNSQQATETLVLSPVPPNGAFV
In short: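 Cloned mouse urotensin (mUR2) receptor membranes from Perkin Elmer Biosignal were immobilized in FlashPlate microplates using a proprietary coating. Each well got 19.5 μl buffer, then 0.5 μl of DMSO, reference ligand, or compound. Adding 5 μl of [125I]-Urotensin II, diluted to 5× final concentration in binding buffer, started binding. Plates were sealed with TopSeal-A and incubated 1 hour at room temperature in the dark. Wells were counted for 30 seconds each on a TopCount after a 60-second delay, and percentage inhibition was calculated.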

T6 sequence (P41146 whole entry): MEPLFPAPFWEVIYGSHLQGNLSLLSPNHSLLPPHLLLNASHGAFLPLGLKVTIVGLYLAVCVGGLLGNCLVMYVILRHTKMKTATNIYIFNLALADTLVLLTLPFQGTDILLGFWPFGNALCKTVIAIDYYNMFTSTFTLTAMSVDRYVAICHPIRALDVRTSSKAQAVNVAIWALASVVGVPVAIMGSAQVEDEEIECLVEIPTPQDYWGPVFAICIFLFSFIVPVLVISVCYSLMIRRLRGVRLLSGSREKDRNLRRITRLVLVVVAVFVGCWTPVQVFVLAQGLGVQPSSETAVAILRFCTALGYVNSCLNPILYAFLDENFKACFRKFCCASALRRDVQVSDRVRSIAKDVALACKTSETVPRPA
T2 sequence (P35372 whole entry): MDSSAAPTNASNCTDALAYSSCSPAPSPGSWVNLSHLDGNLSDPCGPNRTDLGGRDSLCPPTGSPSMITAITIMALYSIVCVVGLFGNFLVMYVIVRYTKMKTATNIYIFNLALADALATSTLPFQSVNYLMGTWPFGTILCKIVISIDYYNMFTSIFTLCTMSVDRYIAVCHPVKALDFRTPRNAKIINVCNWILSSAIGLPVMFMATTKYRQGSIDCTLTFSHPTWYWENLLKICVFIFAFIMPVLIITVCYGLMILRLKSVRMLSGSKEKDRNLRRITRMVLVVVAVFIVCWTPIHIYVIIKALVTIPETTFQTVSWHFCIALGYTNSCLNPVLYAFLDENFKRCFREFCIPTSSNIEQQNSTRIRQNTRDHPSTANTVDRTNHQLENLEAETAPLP
T4 sequence (P33032 whole entry): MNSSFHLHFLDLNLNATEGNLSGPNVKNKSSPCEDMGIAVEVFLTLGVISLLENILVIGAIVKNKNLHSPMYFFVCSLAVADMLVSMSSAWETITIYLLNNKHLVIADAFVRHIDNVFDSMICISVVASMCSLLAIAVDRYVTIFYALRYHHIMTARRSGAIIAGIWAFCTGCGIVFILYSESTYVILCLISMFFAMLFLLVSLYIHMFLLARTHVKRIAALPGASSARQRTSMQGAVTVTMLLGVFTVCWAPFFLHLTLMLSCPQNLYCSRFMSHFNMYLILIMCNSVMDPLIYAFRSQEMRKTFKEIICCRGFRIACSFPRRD
T1 sequence (P41145 whole entry): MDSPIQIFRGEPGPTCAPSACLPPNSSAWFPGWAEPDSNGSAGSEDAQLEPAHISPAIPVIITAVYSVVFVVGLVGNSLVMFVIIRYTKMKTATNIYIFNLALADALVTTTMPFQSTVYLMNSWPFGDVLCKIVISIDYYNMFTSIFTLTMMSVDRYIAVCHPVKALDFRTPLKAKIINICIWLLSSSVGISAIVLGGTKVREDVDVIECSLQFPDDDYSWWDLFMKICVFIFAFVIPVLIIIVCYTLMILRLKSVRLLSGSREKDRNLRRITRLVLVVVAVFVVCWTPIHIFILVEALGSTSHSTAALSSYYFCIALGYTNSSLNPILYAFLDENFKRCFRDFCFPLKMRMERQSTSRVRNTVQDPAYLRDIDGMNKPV
T8 sequence (P41143 whole entry): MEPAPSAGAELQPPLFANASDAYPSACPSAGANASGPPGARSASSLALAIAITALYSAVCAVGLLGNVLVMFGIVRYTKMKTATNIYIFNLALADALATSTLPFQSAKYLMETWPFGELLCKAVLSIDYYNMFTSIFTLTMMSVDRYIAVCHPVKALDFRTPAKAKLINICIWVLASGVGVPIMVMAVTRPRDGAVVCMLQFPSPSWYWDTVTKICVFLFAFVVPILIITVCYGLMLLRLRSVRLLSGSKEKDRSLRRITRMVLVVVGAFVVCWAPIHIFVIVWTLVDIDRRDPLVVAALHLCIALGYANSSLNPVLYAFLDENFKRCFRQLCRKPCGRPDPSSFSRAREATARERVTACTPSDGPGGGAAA
T5 sequence (Q99705 whole entry): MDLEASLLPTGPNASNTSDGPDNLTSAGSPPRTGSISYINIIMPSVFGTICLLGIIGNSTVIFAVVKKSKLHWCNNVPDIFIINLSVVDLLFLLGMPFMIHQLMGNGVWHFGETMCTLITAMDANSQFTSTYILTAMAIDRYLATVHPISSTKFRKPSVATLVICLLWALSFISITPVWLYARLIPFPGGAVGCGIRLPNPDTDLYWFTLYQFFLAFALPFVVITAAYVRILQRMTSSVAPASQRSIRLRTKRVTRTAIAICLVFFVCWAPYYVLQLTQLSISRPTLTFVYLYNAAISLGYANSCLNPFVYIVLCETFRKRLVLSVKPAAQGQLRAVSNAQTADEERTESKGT
T7 sequence (P41968 whole entry): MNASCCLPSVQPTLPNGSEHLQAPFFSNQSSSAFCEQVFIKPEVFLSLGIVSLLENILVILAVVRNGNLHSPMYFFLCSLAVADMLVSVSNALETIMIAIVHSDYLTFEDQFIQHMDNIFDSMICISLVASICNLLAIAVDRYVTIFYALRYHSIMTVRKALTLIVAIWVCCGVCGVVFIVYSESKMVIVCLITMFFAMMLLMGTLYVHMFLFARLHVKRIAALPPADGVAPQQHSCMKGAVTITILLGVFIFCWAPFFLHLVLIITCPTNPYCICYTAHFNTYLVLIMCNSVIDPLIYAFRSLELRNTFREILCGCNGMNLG
T3 sequence (P25103 whole entry): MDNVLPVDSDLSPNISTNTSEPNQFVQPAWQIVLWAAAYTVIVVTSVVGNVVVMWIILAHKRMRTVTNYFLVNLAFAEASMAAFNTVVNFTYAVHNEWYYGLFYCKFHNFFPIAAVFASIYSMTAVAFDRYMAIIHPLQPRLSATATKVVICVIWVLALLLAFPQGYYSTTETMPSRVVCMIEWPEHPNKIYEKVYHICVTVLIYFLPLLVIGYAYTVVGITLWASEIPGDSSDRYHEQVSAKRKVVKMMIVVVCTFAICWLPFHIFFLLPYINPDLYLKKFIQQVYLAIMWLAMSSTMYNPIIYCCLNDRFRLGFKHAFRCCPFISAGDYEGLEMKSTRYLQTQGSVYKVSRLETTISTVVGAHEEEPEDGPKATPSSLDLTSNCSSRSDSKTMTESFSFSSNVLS
T9 sequence (P32245 whole entry): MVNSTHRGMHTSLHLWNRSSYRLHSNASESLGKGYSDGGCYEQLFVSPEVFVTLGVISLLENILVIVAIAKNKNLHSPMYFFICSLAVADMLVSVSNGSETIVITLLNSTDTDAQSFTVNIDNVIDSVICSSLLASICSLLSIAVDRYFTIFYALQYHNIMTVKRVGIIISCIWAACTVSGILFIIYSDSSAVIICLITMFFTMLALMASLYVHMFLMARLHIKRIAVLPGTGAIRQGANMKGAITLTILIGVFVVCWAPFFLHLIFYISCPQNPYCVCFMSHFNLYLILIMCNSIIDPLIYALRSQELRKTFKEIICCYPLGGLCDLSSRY

Row | Structure (SMILES) | A2: inhibition of radioligand binding [1] | A7: inhibition of radioligand binding [2] | A8: inhibition of radioligand binding [3] | A5: inhibition of radioligand binding [4] | A6: inhibition of radioligand binding [5] | A10: inhibition of radioligand binding [6] | A3: inhibition of radioligand binding [7] | A1: inhibition of radioligand binding [8] | A4: inhibition of radioligand binding [9] | A9: inhibition of radioligand binding [10] | A11: inhibition of radioligand binding [11] | other results
1 | COCC1OC(OCc2ccc(Cl)cc2)C(NC(=O)CCNC(=N)N)C(OCc2ccc3ccccc3c2)C1O (centres unmarked) [compound 211] | + (“+” indicates greater than 50% inhibition at 10 μM) | + (“+” indicates greater than 50% inhibition at 10 μM) | + (“+” indicates greater than 50% inhibition at 10 μM) | + (“+” indicates greater than 50% inhibition at 10 μM) | + (“+” indicates greater than 50% inhibition at 10 μM) | − (“−” indicates less than 50% inhibition at 10 μM) | − (“−” indicates less than 50% inhibition at 10 μM) | − (“−” indicates less than 50% inhibition at 10 μM) | + (“+” indicates greater than 50% inhibition at 10 μM) | − (“−” indicates less than 50% inhibition at 10 μM) | − (“−” indicates less than 50% inhibition at 10 μM) | 
2 | CSC1OC(COCc2cccc(N)c2)C(O)C(OCc2ccc(Cl)cc2)C1NC(=O)Cc1ccccc1 (centres unmarked) [compound 328] |  |  |  |  |  |  |  |  |  |  |  | A2: inhibition of radioligand binding, human κ-opioid (KOP) [1]: − (“−” indicates less than 50% inhibition at 10 μM); A7: inhibition of radioligand binding, human μ-opioid (MOP) [2]: − (“−” indicates less than 50% inhibition at 10 μM); A8: inhibition of radioligand binding, human neurokinin (NK1) [3]: + (“+” indicates greater than 50% inhibition at 10 μM); A5: inhibition of radioligand binding, human melanocortin (MC5) [4]: − (“−” indicates less than 50% inhibition at 10 μM); A6: inhibition of radioligand binding, human melanin-concentrating hormone (MCH1) ([5]; [125I]-S36057): − (“−” indicates less than 50% inhibition at 10 μM); A10: inhibition of radioligand binding, human opioid (ORL1) [6]: − (“−” indicates less than 50% inhibition at 10 μM); A3: inhibition of radioligand binding, human melanocortin (MC3) [7]: − (“−” indicates less than 50% inhibition at 10 μM); A1: inhibition of radioligand binding, human δ-opioid (DOP) [8]: − (“−” indicates less than 50% inhibition at 10 μM); A4: inhibition of radioligand binding, human melanocortin (MC4) [9]: − (“−” indicates less than 50% inhibition at 10 μM); A9: inhibition of radioligand binding, human neuropeptide Y (NPY-Y1) [10]: − (“−” indicates less than 50% inhibition at 10 μM); A11: inhibition of radioligand binding, mouse urotensin (mUR2) [11]: − (“−” indicates less than 50% inhibition at 10 μM)
3 | COCC1OC(OCc2ccccc2)C(NC(=O)CCCN)C(OCc2ccc3ccccc3c2)C1O (centres unmarked) [compound 192] | − (“−” indicates less than 50% inhibition at 10 μM) | − (“−” indicates less than 50% inhibition at 10 μM) | + (“+” indicates greater than 50% inhibition at 10 μM) | + (“+” indicates greater than 50% inhibition at 10 μM) | − (“−” indicates less than 50% inhibition at 10 μM) | − (“−” indicates less than 50% inhibition at 10 μM) | − (“−” indicates less than 50% inhibition at 10 μM) | − (“−” indicates less than 50% inhibition at 10 μM) | − (“−” indicates less than 50% inhibition at 10 μM) | − (“−” indicates less than 50% inhibition at 10 μM) | − (“−” indicates less than 50% inhibition at 10 μM) | 
4 | CSC1OC(COCc2ccc(Cl)cc2)C(O)C(OCc2ccc(Cl)cc2)C1NC(=O)CCN (centres unmarked) [compound 271] | − (“−” indicates less than 50% inhibition at 10 μM) | − (“−” indicates less than 50% inhibition at 10 μM) | + (“+” indicates greater than 50% inhibition at 10 μM) | − (“−” indicates less than 50% inhibition at 10 μM) | − (“−” indicates less than 50% inhibition at 10 μM) | − (“−” indicates less than 50% inhibition at 10 μM) | − (“−” indicates less than 50% inhibition at 10 μM) | − (“−” indicates less than 50% inhibition at 10 μM) | − (“−” indicates less than 50% inhibition at 10 μM) | − (“−” indicates less than 50% inhibition at 10 μM) | − (“−” indicates less than 50% inhibition at 10 μM) | 

Source: patent US20080009418A1, “Selective Inhibitors” (Alchemia LTD., priority 2004, published 2008)
